Results on one compound are retold here after patent US8252807B2, “Methods of inhibiting the interaction between S100 and the receptor for advanced glycation end-products” (Board of Regents, The University of Texas System, priority 2007, dated 2012).

The test system of test [1] is NFκB activity in MPanc-96 cells. Nature of the test: S100P stimulated NFκB luciferase reporter, MPanc-96. Conditions: S100P 100 nM, compound 1 μM, 5 hours. The class given is cell-based, human. As for the experimental part: MPanc-96 pancreatic cancer cell lines stably expressing an NFκB luciferase reporter were examined for the effects of S100P, cromolyn and C5. Cells were plated at 5.0×10^3 cells/well, treated for 5 hours with 100 nM of S100P, with or without cromolyn and C5 (1 μM), and activity of a luciferase gene driven by the NFkB promoter was analyzed. P=0.05 C5 versus cromolyn. Two-tailed two-sample (unpaired) Student's t-tests were used to determine P values.
Background: In a reporter assay the amount or activity of a reporter protein is the signal.

In another test the test system is Panc-1 cells. Nature of the test: Panc-1 cell growth (MTS). The class given is cell-based. How it is done:
Panc-1 pancreatic adenocarcinoma cells (1.0×10^3 cells/well) were cultured in the presence or absence of S100P (100 nM) and with or without cromolyn (100 μM), and cell proliferation was analyzed at 24, 48, and 72 hours. Means and 95% confidence intervals of three independent experiments performed in triplicate are shown. *, P=0.001, S100P alone versus S100P+cromolyn.
Panc-1 cells were plated at 1.0×10^3 cells/well and treated with platelet-derived growth factor (10 ng/mL) with or without cromolyn (100 μM), and cell proliferation was analyzed after 48 hours. Means and 95% confidence intervals of three independent experiments performed in triplicate are shown. *, P=0.004 PDGF and P=0.022 cromolyn+PDGF versus control.
Growth of Panc-1 and BxPC3 pancreatic adenocarcinoma cells was analyzed using MTS reagent (Promega, Madison, Wis.) according to the manufacturer's directions. Purified S100P (100 nM final concentration) with or without cromolyn (100 μM final concentration) was added to Panc-1 cells. Only cromolyn (0-100 μM) was added to BxPC-3 cells, which express endogenous S100P. For both cell models, 1.0×10^3 cells/well were plated in 96-well culture dishes. Cells were treated with S100P, PDGF, or cromolyn, or a combination, followed immediately by treatment with either S100P or PDGF. MTS (20 μL per well) was added to cells at various times, and the mixture was incubated for 1 hour at 37° C. Samples were then read at 490 nm (as O.D. units) on a uQuant-Microplate Spectrophotometer (Bio-Tek Services Inc., Richmond, Va.). The assay was performed three times in triplicate.

The test system of test [2] is SKOV3 ovarian cells. Nature of the test: SKOV3 ovarian cell viability with taxol. The class given is cell-based. Conditions: taxol 5 μM, cromolyn 10 μM, 48 hours. As for the experimental part:
SKOV3 ovarian cells were plated and treated with taxol (5 μM) either in the presence or absence of cromolyn (10 μM) for 48 hours. Cell viability was analyzed after 48 hours. *, P<0.05.

Test [3] concerns SKOV3 ovarian cells. Nature of the test: SKOV3 ovarian cell proliferation. The class given is cell-based. The following applies: 24, 48 and 72 hours. How it is done: SKOV3 ovarian cells were cultured for up to three days in the presence of different concentrations of cromolyn, and cell proliferation was analyzed at 24, 48, and 72 hours. *, P<0.05.
The test system of a further test is SW480 colon cells. Nature of the test: SW480 colon cell proliferation. The class given is cell-based. Conditions: cromolyn 100 μM, up to three days. As for the experimental part: SW480 colon cells were cultured for up to three days in the presence of cromolyn (100 μM), and cell proliferation was analyzed. *, P<0.05.
For the next test, the target named is S100B with RAGE (Homo sapiens, UniProt P04271). Nature of the test: S100B binding with RAGE ELISA (sRAGE coated plate). From the text: After removing un-bound S100B by washing with detergent, bound S100B and RAGE complex was quantified by adding HRP labeled antibody against S100B.
(In an ELISA, binding on a coated surface is turned into a signal by an enzyme label.)

Test [4] deals with NFκB activity of BxPC-3 cells transplanted orthotopically. Nature of the test: NFκB promoter activity in vivo, orthotopic BxPC-3 tumors. More on the design: species or system mice. How it is done: FIGS. 3A, 3B, and 3C show the effect of cromolyn on S100P stimulated NFκB promoter activity in pancreatic cancer cells in vitro and in vivo. Panc-1 and BxPC-3 pancreatic cancer cell lines stably expressing an NFκB luciferase reporter were examined for the effects of S100P and cromolyn. […] Means and 95% confidence intervals are shown for three independent experiments performed in triplicate. *, P=0.022, †, P<0.001, and ‡, P<0.001 versus control; #, P=0.005 versus 100 nM S100P alone. […] Means and 95% confidence intervals are shown for three independent experiments performed in triplicate. *, P=0.003, †, P<0.001 versus control. […] After 1 week, tumor growth was assessed and NFκB activity was analyzed using an IVIS system (Xenogen Corp., Alameda, Calif.) after injecting mice with D-luciferin (150 mg per kg body weight) (0 time point). The mice were treated with cromolyn (5 mg per kg body weight by intraperitoneal injection), and NFκB luciferase activity was analyzed again at 24 and 48 hours. *, P=0.005 versus control. Means and 95% confidence intervals are shown for two independent experiments (n=4 mice per group). Two-tailed two-sample (unpaired for in vitro and paired for in vivo studies) Student's t-tests were used to determine P values.
To measure NFκB promoter activity in vivo, BxPC-3 cells (50,000/50 μL) stably expressing a Lenti-NFkB-luc reporter were transplanted orthotopically into the pancreas of 4-week-old male CB 17 scid mice (n=4 mice per experiment). After 1 week mice were injected with D-luciferin (150 mg per kg body weight, i.p.), and basal NFκB activity was determined using the IVIS system. Subsequently, mice were injected with cromolyn (5 mg per kg body weight, i.p.), and NFκB luciferase activity was re-analyzed after 24 and 48 hours. These experiments were performed three times.

A further test concerns PC3 prostate cells. Put plainly: PC3 prostate cell viability with taxol. In kind it is cell-based. Conditions: taxol 100 nM, cromolyn 10 μM, 48 hours. As for the experimental part:
PC3 prostate cells were plated and treated with taxol (100 nM) either in the presence or absence of cromolyn (10 μM) for 48 hours. Cell viability was analyzed after 48 hours. *, P<0.05.

A further test relates to SW480 cells. Put plainly: SW480 colon cancer cell invasion (matrigel transwell). In kind it is cell-based. The following applies: cromolyn 10 μM and 100 μM, 24 hours. How it is done: SW480 cells were plated on top of a layer of matrigel in a Boyden type chamber (transwell). Media containing 5% FBS was placed in the lower well and the cells were allowed to invade the matrigel layer for 24 hours in the presence of different concentrations of cromolyn.

Sequence of S100B with RAGE (P04271 whole entry, species assumed): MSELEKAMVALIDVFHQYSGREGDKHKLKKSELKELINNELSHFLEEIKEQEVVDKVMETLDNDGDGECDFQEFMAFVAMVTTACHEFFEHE

As to `O=C(O)c1cc(=O)c2c(OCC(O)COc3cccc4oc(C(=O)O)cc(=O)c34)cccc2o1` [cromolyn, disodium 1,3-bis[(2′-carboxylatochromon-5′-yl)oxy]-2-hydroxypropane], in [1], the “NFκB activity in pancreatic cancer cells in vitro” value is “inhibit NFκB activity”. In the test with Panc-1 cells, the “serum stimulated Panc-1 cell proliferation” value is recorded as “did not influence”. Further, the “PDGF-stimulated Panc-1 growth in presence of cromolyn” value in the test on Panc-1 cells (PDGF 10 ng/mL, cromolyn 100 μM, 48 hours) is “nor did it inhibit growth stimulation caused by PDGF”. The “Panc-1 cell proliferation, mean” value with Panc-1 cells (S100P 100 nM + cromolyn 100 μM) is 0.56 MTS units. In the test on Panc-1 cells (S100P 100 nM, cromolyn 100 μM), the “Panc-1 cell proliferation, difference S100P versus S100P+cromolyn” value is 0.37 MTS units and the “effects of exogenous S100P treatment on Panc-1 proliferation” value is recorded as “completely blocked”. Also, the “Panc-1 cell proliferation, cromolyn treatment alone” value in the test on Panc-1 cells (no S100P) is on record as “no effect”. Further, the “cell killing effect of taxol on ovarian cancer cells” value with SKOV3 ovarian cells [2] was “increased the cell killing effect of taxol”. In the test on SKOV3 ovarian cells [3], the “growth of SKOV3 cells” value is reported as “reduced the growth”. Also, the “growth of SW480 cells” value in the test with SW480 colon cells is recorded as “reduced growth”. Also, the “interaction of S100B with RAGE” value on S100B with RAGE is listed as “inhibit the interaction of S100B with RAGE”. The “NFκB luciferase activity in vivo, mean” value in test [4] (24 h after single dose 5 mg per kg i.p., 0 h mean=9.9×10^6) is recorded as 1.3×10^6 photons/sec. Moreover, the “reduction of basal NFκB activity in vivo” value in test [4] (24 hours after single dose 5 mg per kg i.p.) is “at least 80%”. In test [4] (48 hours after single dose 5 mg per kg i.p.), the “NFκB activity in vivo at 48 hours” value is reported as “returned to control levels”. In addition, the “NFκB luciferase activity in vivo, difference 0 h versus 24 h” value in test [4] (single dose 5 mg per kg i.p.) is on record as 8.6×10^6 photons/sec. The “cell killing effect of taxol on prostate cancer cells” value in the test on PC3 prostate cells is “increased the cell killing effect of taxol”. Moreover, in the test with SW480 cells, the “invasiveness of SW480 cells” value is on record as “reduced the invasiveness”.
